{
  "source": "patent US20210402002A1",
  "about": "“CONJUGATE” (priority 2018, published 2021)",
  "key": {"SKBR-3 cells [1]": {"test_system": "SKBR-3 cells", "test": "ADCC assay (LDH cytotoxicity) with SKBR-3 cells pre-incubated with glycosylation inhibitors", "type": "cell-based", "procedure": "(§1) SKBR-3 and SKOV-3 cells were cultured on 96-well plates in recommended conditions and incubated with or without glycosylation inhibitors or ADCs for four days as described above. […] After 3.5 h at +37° C., cytotoxicity was assessed with commercial lactate dehydrogenase assay kit (Cytotoxicity detection kit (LDH), Thermo Fischer Scientific) and the cytotoxicities were calculated as proportion of killed cells (%, average of three parallel wells)."}, "[2]": {"test_system": "SKOV-3 ovarian carcinoma cells", "test": "FACS staining of SKOV-3 cells with labeled lectins and Galectins after incubation with glycosylation inhibitors", "type": "cell-based", "settings": "compared to untreated cells; for Galectin ligand expression, LEA-FITC, Galectin-1 and Galectin-3 staining: 50 μM, 4 days; for cell surface sialylation, SNA-I-FITC lectin staining: 100 μM, 3 days", "procedure": "SKOV-3 ovarian carcinoma cells (ATCC, Manassas, Va., USA) were cultured according to ATCC's instructions and incubated in the presence of either 50 μM 2-acetamido-2,4-dideoxy-4-fluoro-1,3,6-tri-O-acetyl-D-glucose for 4 days (β-4-F-GlcNAc; Sussex Research, Ottawa, Canada), 100 μM 5-acetamido-3,5-dideoxy-3-fluoro-2,4,7,8,9-penta-O-acetyl-D-erythro-L-manno-2-nonulosonic acid methyl ester (β-3-Fax-Neu5Ac; Tocris Bioscience, Abingdon, United Kingdom) for 3 days, or DMSO carrier control in parallel. After the incubation, cells were stained with fluorescein-labeled lectins SNA-I-FITC for α2,6-sialylation, LEA-FITC for poly-N-acetyllactos-amines (both from EY Labs, San Mateo, Calif., USA), Alexa Fluor 488-conjugated human recombinant Galectin-1, and Alexa Fluor 488-conjugated human recombinant Galectin-3 (both from Abcam, Cambridge, United Kingdom). Cells were washed and stored on ice in the dark until analysed by FACSAriaII flow cytometer."}, "SKOV-3 cells": {"test_system": "SKOV-3 cells", "test": "ADCC assay (LDH cytotoxicity) with SKOV-3 cells pre-incubated with glycosylation inhibitors", "type": "cell-based", "procedure": "as §1"}, "HSC-2 cancer cells": {"test_system": "HSC-2 cancer cells", "test": "FACS staining of HSC-2 cells with lectins, Galectin-1 and Siglec-7 after incubation with glycosylation inhibitors", "type": "cell-based", "settings": "2 days, compared to untreated cells; for Galectin-1 ligand glycosylation, lectin and Galectin-1 staining: 100 μM; for sialylation/Siglec-7 ligand glycosylation, SNA-I and Siglec-7 staining: 200 μM", "procedure": "In another experiment, HSC-2 cancer cells were cultured for two days, after which glycosylation inhibitors were added to the cell culture medium: 200 μM β-3-Fax-Neu5Ac and 100 μM β-4-F-GlcNAc. The cells were then cultured for 2 days with inhibitors. In parallel, untreated cells were cultured in normal cell culture medium. For flow cytometry analysis cells were detached with trypsin, washed, and stained with FITC-conjugated lectins, AlexaFluor488-conjugated Galectin-1 and recombinant human Siglec-7 (R&D Systems) at +4° C. for 30-45 minutes (the Siglec-samples were further stained with AlexaFluor488-conjugated anti-human IgG antibody at +4° C. for 30-45 minutes). FACS was performed as above."}, "SKBR-3 cells [3]": {"test_system": "SKBR-3 cells"}, "HER2": {"test_system": "HER2", "test": "Inhibition of HER2 glycoprotein N-glycosylation in SKBR-3 cells (SDS-PAGE, anti-HER2 immunoblot)", "type": "cell-based, human", "from_the_text": "After six days' culture, the cells were lysed and samples from each treatment were subjected to SDS-PAGE and immunoblotting with anti-HER2 antibody (anti-human ErbB2/Her2 goat polyclonal antibody AF1129, R&D Systems) with standard procedures."}, "SKBR-3 cells [4]": {"test_system": "SKBR-3 cells", "test": "N-glycan profiling by MALDI-TOF MS, high-mannose N-glycans (mannosidase I inhibition)", "type": "cell-based", "settings": "10 μM, four days, control cells 7.07"}, "egg embryos": {"test_system": "egg embryos", "test": "Embryo toxicity in the CAM in vivo trial (% alive egg embryos)", "parameters": "species or system chicken", "settings": "alive egg embryos at end of study; same dosing; PBS control 83", "procedure": "(§2) The study was performed by Inovotion SAS (La Tronche, France) as follows: Fertilized chicken eggs were incubated at 37.5° C. with 50% relative humidity for 9 days (E9), when the chorioallantoic membrane (CAM) was dropped down by drilling a small hole through the eggshell into the air sac, and a 1 cm^2 window was cut in the eggshell above the CAM. The NCI-N87 cell line was cultivated in RPMI-1640 medium supplemented with 10% FBS and 1% penicillin/streptomycin. On day E9, cells were detached by trypsin, washed with complete medium and suspended in graft medium. An inoculum of 2 million cells was added onto the CAM of each egg. […] On day 18 (E18) the upper portion of the CAM was removed, washed in PBS and then directly transferred in PFA (fixation for 48 h). The tumors were then carefully cut away from normal CAM tissue and weighed. Eggs were checked at each treatment time, or at least every two days, for viability during the study. At the end of the study, the number of dead embryos was counted and combined with the observation of eventual visible macroscopic abnormalities (observation done during the sample collection) to evaluate the toxicity."}, "[5]": {"test_system": "NCI-N87 cancer cell line tumors", "test": "In vivo efficacy trial, tumors on chicken egg chorioallantoic membrane (CAM)", "settings": "day E18, trastuzumab and tunicamycin-ADC single dose 2.5 mg/kg, pembrolizumab […] five doses, PBS control 32.2", "procedure": "as §2"}, "[6]": {"settings": "second assay, SKBR-3, 50 μM inhibitor and trastuzumab only, no effector cells"}, "[7]": {"settings": "second assay, SKBR-3, 50 μM inhibitor, trastuzumab and effector cells applied"}, "[8]": {"settings": "SKOV-3, 50 μM inhibitor and trastuzumab only, no effector cells"}, "[9]": {"settings": "SKOV-3, 50 μM inhibitor, trastuzumab and effector cells applied"}},
  "data": [
    {"molecule": "CC(=O)N[C@H]1C(OC(C)=O)O[C@H](COC(C)=O)[C@@H](F)[C@@H]1OC(C)=O", "note": "(stereo partly drawn) [P-4F-GlcNAc, 2-acetamido-2,4-dideoxy-4-fluoro-1,3,6-tri-O-acetyl-D-glucose]", "values": [
      {"measurement": "cytotoxicity (proportion of killed cells)", "setting": "SKBR-3 cells [1]; [6]", "result": "1-2%"},
      {"measurement": "cytotoxicity (proportion of killed cells)", "setting": "SKBR-3 cells [1]; [7]", "result": "about 16%"},
      {"measurement": "Galectin ligand expression, LEA-FITC, Galectin-1 and Galectin-3 staining", "setting": "[2]", "result": "effective inhibition"},
      {"measurement": "Galectin ligand expression, LEA-FITC, Galectin-1 and Galectin-3 staining", "setting": "[2]; listed as β-4-F-GlcNAc", "result": "clearly decreased"},
      {"measurement": "cytotoxicity (proportion of killed cells)", "setting": "SKOV-3 cells; [8]", "result": "no cytotoxicity was observed"},
      {"measurement": "cytotoxicity (proportion of killed cells)", "setting": "SKOV-3 cells; [9]", "result": "about 5%"},
      {"measurement": "Galectin-1 ligand glycosylation, lectin and Galectin-1 staining", "setting": "HSC-2 cancer cells", "result": "effective inhibition"},
      {"measurement": "Galectin-1 ligand glycosylation, lectin and Galectin-1 staining", "setting": "HSC-2 cancer cells; listed as β-4-F-GlcNAc", "result": "clearly decreased"}
    ]},
    {"molecule": "omalizumab-MC-VC-PAB-DMAE-tunicamycin DAR=8 ADC: DAR=8 conjugate of MC-VC-PAB-DMAE-tunicamycin V prepared from omalizumab (negative control antibody)", "values": [
      {"measurement": "cytotoxicity to the cells in the viability assay", "setting": "SKBR-3 cells [3]; five or eight days, up to 1 μM", "result": "no apparent toxicity"}
    ]},
    {"molecule": "COC(=O)C1(OC(C)=O)O[C@@H]([C@H](OC(C)=O)[C@@H](COC(C)=O)OC(C)=O)[C@H](NC(C)=O)[C@@H](OC(C)=O)[C@H]1F", "note": "(stereo partly drawn) [P-3Fax-Neu5Ac, 5-acetamido-3,5-dideoxy-3-fluoro-2,4,7,8,9-penta-O-acetyl-D-erythro-L-manno-2-nonulosonic acid methyl ester]", "values": [
      {"measurement": "absorbance reading in the cytotoxicity assay", "setting": "SKBR-3 cells [1]; third assay, SKBR-3, 50 μM inhibitor, trastuzumab and effector cells applied", "result": "about 0.7"},
      {"measurement": "cell surface sialylation, SNA-I-FITC lectin staining", "setting": "[2]", "result": "effective inhibition"},
      {"measurement": "cell surface sialylation, SNA-I-FITC lectin staining", "setting": "[2]; listed as β-3-Fax-Neu5Ac", "result": "clearly decreased"},
      {"measurement": "sialylation/Siglec-7 ligand glycosylation, SNA-I and Siglec-7 staining", "setting": "HSC-2 cancer cells", "result": "effective inhibition"},
      {"measurement": "sialylation/Siglec-7 ligand glycosylation, SNA-I and Siglec-7 staining", "setting": "HSC-2 cancer cells; listed as β-3-Fax-Neu5Ac", "result": "clearly decreased"}
    ]},
    {"molecule": "tunicamycin", "values": [
      {"measurement": "IC50", "setting": "SKBR-3 cells [3]; read-out: IC50 (cellular viability), six days", "result": 0.3, "unit": "µM"},
      {"measurement": "cytotoxicity (proportion of killed cells)", "setting": "SKBR-3 cells [1]; first assay, SKBR-3, 1 μM inhibitor and trastuzumab only, no effector cells", "result": "no cytotoxicity was detected"},
      {"measurement": "cytotoxicity (proportion of killed cells)", "setting": "SKBR-3 cells [1]; first assay, SKBR-3, 1 μM inhibitor, trastuzumab and effector cells applied", "result": 40.4, "unit": "%"},
      {"measurement": "cytotoxicity (proportion of killed cells)", "setting": "SKBR-3 cells [1]; second assay, SKBR-3, 0.5 μM inhibitor and trastuzumab only, no effector cells", "result": "about 4%"},
      {"measurement": "cytotoxicity (proportion of killed cells)", "setting": "SKBR-3 cells [1]; second assay, SKBR-3, 0.5 μM inhibitor, trastuzumab and effector cells applied", "result": "about 46%"},
      {"measurement": "EC50", "setting": "HER2; six days' incubation, immunoblot, read-out: EC50 (concentration with 50% efficacy) of decrease of relative MW of HER2, defective N-glycosylation", "result": 0.07, "unit": "µM"},
      {"measurement": "decrease of relative MW of HER2 upon inhibition of N-glycosylation", "setting": "HER2; six days, SDS-PAGE", "result": "about 15 kDa"},
      {"measurement": "cytotoxicity (proportion of killed cells)", "setting": "SKOV-3 cells; SKOV-3, 0.5 μM inhibitor and trastuzumab only, no effector cells", "result": "about 2%"},
      {"measurement": "cytotoxicity (proportion of killed cells)", "setting": "SKOV-3 cells; SKOV-3, 0.5 μM inhibitor, trastuzumab and effector cells applied", "result": "about 5%"}
    ]},
    {"molecule": "O=C1N[C@@H]2[C@@H](O)[C@@H](O)[C@H](O)[C@@H](CO)N2C1=O", "note": "[kifunensine]", "values": [
      {"measurement": "cytotoxicity (proportion of killed cells)", "setting": "SKBR-3 cells [1]; first assay, SKBR-3, 10 μM inhibitor and trastuzumab only, no effector cells", "result": "no cytotoxicity was detected"},
      {"measurement": "cytotoxicity (proportion of killed cells)", "setting": "SKBR-3 cells [1]; first assay, SKBR-3, 10 μM inhibitor, trastuzumab and effector cells applied", "result": 18.5, "unit": "%"},
      {"measurement": "cytotoxicity (proportion of killed cells)", "setting": "SKBR-3 cells [1]; [6]", "result": "2-3%"},
      {"measurement": "cytotoxicity (proportion of killed cells)", "setting": "SKBR-3 cells [1]; [7]", "result": "about 19%"},
      {"measurement": "cytotoxicity (proportion of killed cells)", "setting": "SKOV-3 cells; [8]", "result": "no cytotoxicity was observed"},
      {"measurement": "cytotoxicity (proportion of killed cells)", "setting": "SKOV-3 cells; [9]", "result": "about 2%"},
      {"measurement": "average number of mannose residues (Man) in the Man5-9GlcNAc2 glycan signal series", "setting": "SKBR-3 cells [4]", "result": 8.56}
    ]},
    {"molecule": "pembrolizumab: pembrolizumab (Keytruda, Merck)", "values": [
      {"measurement": "% alive", "setting": "egg embryos", "result": 58, "unit": "%"},
      {"measurement": "Mean tumor size", "setting": "[5]", "result": 34.9, "unit": "mg"}
    ]}
  ]
}
